For 13 compounds, Kd, IC50 and inhibition results are on record in patent US9845319B2, “Amide substituted thiazoles as modulators of RORyt” (Janssen Pharmaceutica NV, priority 2014, dated 2017).

For assay [1], the target named is T1, human RORγt ligand binding domain (RORγt LBD) (Homo sapiens, UniProt P51449).
T1 construct: His-tag (N); TurboTEV protease cleavage site (ENLYFQG) (N); made in house; host or cells: E. coli (pHIS1, a modified pET expression vector)
T1 sequence (P51449 with tags, fused parts or gaps): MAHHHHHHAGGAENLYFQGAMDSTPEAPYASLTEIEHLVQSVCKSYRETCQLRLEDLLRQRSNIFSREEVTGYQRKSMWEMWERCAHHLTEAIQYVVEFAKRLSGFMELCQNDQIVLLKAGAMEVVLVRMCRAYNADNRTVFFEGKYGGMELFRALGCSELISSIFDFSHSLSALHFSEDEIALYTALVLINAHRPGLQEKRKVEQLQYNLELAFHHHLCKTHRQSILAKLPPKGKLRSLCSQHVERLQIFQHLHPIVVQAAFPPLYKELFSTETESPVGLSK
As to the kind of experiment: RORγt ThermoFluor assay. The settings on record: estimated from thermal shift concentration response. In outline: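 Thermal shift of RORγt LBD (0.065 mg/mL) with 60 μM 1,8-ANS in 100 mM Hepes pH 7.0, NaCl, GSH, 0.002% Tween-20, heated at 1° C/min. ANS fluorescence tracked versus temperature; ΔTm relative to DMSO wells. Compounds serially diluted 1:2 from 10 mM DMSO stock.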

In assay [2] the test system is IL-17 production by CD4 T cells. The assay is described as follows: Human Th17 Assay. The class given is cell-based. Particulars: 72 h, read-out: Human Th17 Assay, IC50. The procedure: The human Th17 assay tests the effect of RORγt modulatory compounds on IL-17 production by CD4 T cells under conditions which favor Th17 differentiation. Total CD4^+ T cells were isolated from the peripheral blood mononuclear cells (PBMC) of healthy donors using a CD4^+ T cell isolation kit II, following the manufacturer's instructions (Miltenyi Biotec). […] 50 μL of compound at titrated concentrations in DMSO were added into each well at final DMSO concentration at 0.2%. Cells were incubated for 1 hour, then 50 μL of Th17 cell differentiation medium was added to each well. The final concentrations of antibodies and cytokines (R&D Systems) in differentiation medium were: 3×10^6/mL anti-CD3/CD28 beads (prepared using human T cell activation/expansion kit, Miltenyi Biotec), 10 μg/mL anti-IL4, 10 μg/mL anti-IFNγ, 10 ng/mL IL1β, 10 ng/mL IL23, 50 ng/mL IL6, 3 ng/mL TGFβ and 20 U/mL IL2. Cells were cultured at 37° C. and 5% CO2 for 3 days. Supernatants were collected and the accumulated IL-17 in culture was measured by using MULTI-SPOT® Cytokine Plate following manufacture's instruction (Meso Scale Discovery). The plate was read using Sector Imager 6000, and IL-17 concentration was extrapolated from the standard curve. The IC50s were determined by GraphPad.

The target in the next assay is T2, full-length human RORγt (Homo sapiens, UniProt P51449).
T2 construct: expressed in transfected cells; host or cells: HEK293T, transiently transfected with pCMV-BD-ROR
T2 sequence (P51449 1-497 isoform P51449-2): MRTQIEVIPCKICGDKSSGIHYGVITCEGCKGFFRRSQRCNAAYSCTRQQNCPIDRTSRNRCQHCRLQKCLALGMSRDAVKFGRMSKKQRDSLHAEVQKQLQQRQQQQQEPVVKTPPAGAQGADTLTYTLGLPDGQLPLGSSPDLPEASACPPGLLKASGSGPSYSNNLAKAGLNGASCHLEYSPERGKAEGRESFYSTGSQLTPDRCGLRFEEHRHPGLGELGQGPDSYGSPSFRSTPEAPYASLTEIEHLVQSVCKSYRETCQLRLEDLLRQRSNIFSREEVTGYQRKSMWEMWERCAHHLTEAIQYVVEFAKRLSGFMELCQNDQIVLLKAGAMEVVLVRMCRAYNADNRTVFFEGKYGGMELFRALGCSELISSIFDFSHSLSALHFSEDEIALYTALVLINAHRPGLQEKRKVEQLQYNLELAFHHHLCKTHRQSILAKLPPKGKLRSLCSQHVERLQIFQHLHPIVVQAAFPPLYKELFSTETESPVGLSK
As to the kind of experiment: RORγt (full-length human) Reporter Assay, Conditions A. It counts as cell-based. The settings on record: for IC50: HEK293T cells, GAL4-DBD-RORγt, luciferase, read-out: RORγt (FL) Reporter Assay A, IC50; for inhibition at 6 µM: read-out: RORγt (FL) Reporter Assay A, % inhibition @ 6 μM, 6 μM compound; for inhibition at 2 µM: read-out: RORγt (FL) Reporter Assay A, % inhibition (* at 2 μM), 2 μM compound concentration (footnote *). In short, it runs like this:
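Dual-luciferase readout after overnight (16 to 20 hours) treatment: firefly values scaled between DMSO-only and saturating reference-compound controls, then corrected by Renilla. Percent inhibition calculated against DMSO control, with IC50 derived from concentration-response plots.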

[3] abbreviates: IL-17 in supernatant, 3 days, human CD4+ T cells.

The structures appear in SMILES notation. Read-outs that look alike come from different tables or passages of the source.

Regarding `CC(C)(Cc1nnc(-c2nc(C(=O)N3CCC(F)CC3)c(-c3cc(C(C)(C)C)cc(C(O)(C(F)(F)F)C(F)(F)F)c3)s2)o1)C(=O)O` [Example 2/2, 3-(5-(5-(3-(tert-Butyl)-5-(1,1,1,3,3,3-hexafluoro-2-hydroxypropan-2-yl)phenyl)-4-(4-fluoropiperidine-1-carbonyl)thiazol-2-yl)-1,3,4-oxadiazol-2-yl)-2,2-dimethylpropanoic acid], the Kd in assay [1] is 2 nM. The IC50 in assay [2] (setting [3]) came out at 150 nM. On full-length human RORγt, the IC50 is 150 nM and the inhibition at 6 µM is 104%.

`CC[C@H](NS(=O)(=O)c1ccc(-c2sc(-c3cccc(CC(C)(C)C(=O)O)n3)nc2C(=O)N2CCC(F)(F)CC2)c(C(F)F)c1F)C(F)(F)F` [Example 19, (S)-3-(6-(5-(2-(Difluoromethyl)-3-fluoro-4-(N-(1,1,1-trifluorobutan-2-yl)sulfamoyl)phenyl)-4-(4,4-difluoropiperidine-1-carbonyl)thiazol-2-yl)pyridin-2-yl)-2,2-dimethylpropanoic acid]: the Kd in assay [1] was 0.013 nM. The IC50 in assay [2] (setting [3]) amounted to 9 nM. On full-length human RORγt, the half-inhibitory concentration (IC50) was determined as 8 nM and the inhibition at 2 µM was determined as 99%.

Regarding `C[C@H](NS(=O)(=O)c1ccc(-c2sc(-c3nnc(C(C)(C)O)o3)nc2C(=O)N2CCC(F)(F)CC2)c(Cl)c1Cl)C(F)(F)F` [Example 4/4, (S)-2,3-Dichloro-4-(4-(4,4-difluoropiperidine-1-carbonyl)-2-(5-(2-hydroxypropan-2-yl)-1,3,4-oxadiazol-2-yl)thiazol-5-yl)-N-(1,1,1-trifluoropropan-2-yl)benzenesulfonamide], in assay [2] (Homo sapiens, CD4+ T), the IC50 came to 15 nM.

As to `CC1(NS(=O)(=O)c2ccc(-c3sc(-c4nnc(C(C)(C)O)o4)nc3C(=O)N3CCC(F)(F)CC3)c(Cl)c2Cl)CC1` [Example 21, 2,3-Dichloro-4-(4-(4,4-difluoropiperidine-1-carbonyl)-2-(5-(2-hydroxypropan-2-yl)-1,3,4-oxadiazol-2-yl)thiazol-5-yl)-N-(1-methylcyclopropyl)benzenesulfonamide], the Kd in assay [1] was 4.7 nM. In addition, on full-length human RORγt, the half-inhibitory concentration (IC50) worked out at 67 nM and the inhibition at 6 µM amounted to 107%.

Turning to `C[C@H](NS(=O)(=O)c1ccc(-c2sc(-c3nnc(C(C)(C)O)o3)nc2C(=O)N2CC(F)C[C@@H]2C)c(C(F)F)c1F)C(F)(F)F` (stereo partly drawn) [Example 6/21, 3-(Difluoromethyl)-2-fluoro-4-(4-((2S)-4-fluoro-2-methylpyrrolidine-1-carbonyl)-2-(5-(2-hydroxypropan-2-yl)-1,3,4-oxadiazol-2-yl)thiazol-5-yl)-N—((S)-1,1,1-trifluoropropan-2-yl)benzenesulfonamide], the Kd in assay [1] is 270 nM. In addition, on full-length human RORγt, the IC50 is 410 nM and the inhibition at 6 µM came out at 102%.

As for `CN(CC(F)(F)F)S(=O)(=O)c1ccc(-c2sc(-c3nnc(C(C)(C)O)o3)nc2C(=O)N2CCC(F)(F)CC2)c(Cl)c1F` [Example 6/23, 3-Chloro-4-(4-(4,4-difluoropiperidine-1-carbonyl)-2-(5-(2-hydroxypropan-2-yl)-1,3,4-oxadiazol-2-yl)thiazol-5-yl)-2-fluoro-N-methyl-N-(2,2,2-trifluoroethyl)benzenesulfonamide], the Kd in assay [1] was 6000 nM. Moreover, on full-length human RORγt, the IC50 came to 2300 nM and the inhibition at 6 µM is 40%.

`CC(C)(O)c1nnc(-c2nc(C(=O)N3CCC(F)(F)CC3)c(-c3ccc(S(=O)(=O)NC4(C(F)F)CC4)c(F)c3Cl)s2)o1` [Example 6/17, 3-Chloro-N-(1-(difluoromethyl)cyclopropyl)-4-(4-(4,4-difluoropiperidine-1-carbonyl)-2-(5-(2-hydroxypropan-2-yl)-1,3,4-oxadiazol-2-yl)thiazol-5-yl)-2-fluorobenzenesulfonamide]: in assay [1], the Kd is 21 nM. In addition, on full-length human RORγt, the IC50 came to 100 nM and the inhibition at 6 µM amounted to 105%.

As to `C[C@H](NS(=O)(=O)c1ccc(-c2sc(-c3nnc(C(C)(C)O)[nH]3)nc2C(=O)N2CC(F)(F)C[C@@H]2C)c(Cl)c1Cl)C(F)(F)F` [Example 9/2, 2,3-Dichloro-4-(4-((S)-4,4-difluoro-2-methylpyrrolidine-1-carbonyl)-2-(5-(2-hydroxypropan-2-yl)-4H-1,2,4-triazol-3-yl)thiazol-5-yl)-N—((S)-1,1,1-trifluoropropan-2-yl)benzenesulfonamide], in assay [1], the Kd was 0.71 nM. In addition, at full-length human RORγt, the IC50 came out at 28 nM and the inhibition at 2 µM was 104%.

Regarding `CCCN(CC)C(=O)c1nc(-c2nnc(C(C)(C)O)o2)sc1-c1ccc(S(=O)(=O)N[C@@H](C)C(F)(F)F)c(Cl)c1Cl` [Example 6/8, (S)-5-(2,3-Dichloro-4-(N-(1,1,1-trifluoropropan-2-yl)sulfamoyl)phenyl)-N-ethyl-2-(5-(2-hydroxypropan-2-yl)-1,3,4-oxadiazol-2-yl)-N-propylthiazole-4-carboxamide], the Kd in assay [1] is 4.5 nM. Moreover, at full-length human RORγt, the concentration for half-maximal inhibition (IC50) was 30 nM and the inhibition at 6 µM is 108%.

For the compound `CC[C@H](NS(=O)(=O)c1ccc(-c2sc(-c3noc(CC(C)(C)O)n3)nc2C(=O)N2CCC(F)CC2)c(C(F)F)c1F)C(F)(F)F` [Example 12, (S)-3-(Difluoromethyl)-2-fluoro-4-(4-(4-fluoropiperidine-1-carbonyl)-2-(5-(2-hydroxy-2-methylpropyl)-1,2,4-oxadiazol-3-yl)thiazol-5-yl)-N-(1,1,1-trifluorobutan-2-yl)benzenesulfonamide], the Kd in assay [1] is 9.4 nM. Further, at full-length human RORγt, the IC50 was found to be 68 nM and the inhibition at 6 µM is 103%.

For `CCCN(C)C(=O)c1nc(-c2nnc(C(C)(C)O)o2)sc1-c1ccc(S(=O)(=O)N[C@@H](C)C(F)(F)F)c(Cl)c1Cl` [Example 6/6, (S)-5-(2,3-Dichloro-4-(N-(1,1,1-trifluoropropan-2-yl)sulfamoyl)phenyl)-2-(5-(2-hydroxypropan-2-yl)-1,3,4-oxadiazol-2-yl)-N-methyl-N-propylthiazole-4-carboxamide], the Kd in assay [1] was 16 nM. Also, on full-length human RORγt, the IC50 was determined as 72 nM and the inhibition at 6 µM was found to be 110%.

For `C[C@H](NS(=O)(=O)c1ccc(-c2sc(-c3cc(C(C)(C)O)on3)nc2C(=O)N2CCC(F)CC2)c(Cl)c1Cl)C(F)(F)F` [Example 13/1, (S)-2,3-Dichloro-4-(4-(4-fluoropiperidine-1-carbonyl)-2-(5-(2-hydroxypropan-2-yl)isoxazol-3-yl)thiazol-5-yl)-N-(1,1,1-trifluoropropan-2-yl)benzenesulfonamide], in assay [1], the Kd is 4.9 nM. Further, at full-length human RORγt, the 50% inhibitory concentration (IC50) turned out to be 21 nM and the inhibition at 2 µM stood at 101%.

Regarding `C[C@H](NS(=O)(=O)c1ccc(-c2sc(-c3nnc(C(C)(C)O)o3)nc2C(=O)N2CCC(F)(F)CC2)c(C(F)F)c1Cl)C(F)(F)F` [Example 6/14, (S)-2-Chloro-3-(difluoromethyl)-4-(4-(4,4-difluoropiperidine-1-carbonyl)-2-(5-(2-hydroxypropan-2-yl)-1,3,4-oxadiazol-2-yl)thiazol-5-yl)-N-(1,1,1-trifluoropropan-2-yl)benzenesulfonamide], the Kd in assay [1] was 3.3 nM. In addition, on full-length human RORγt, the IC50 worked out at 73 nM and the inhibition at 6 µM came out at 105%.
